In one test the target is T1, human CYP11B2 (Homo sapiens, UniProt P19099).
T1 construct: expressed in transfected cells
T1 sequence (P19099 25-503): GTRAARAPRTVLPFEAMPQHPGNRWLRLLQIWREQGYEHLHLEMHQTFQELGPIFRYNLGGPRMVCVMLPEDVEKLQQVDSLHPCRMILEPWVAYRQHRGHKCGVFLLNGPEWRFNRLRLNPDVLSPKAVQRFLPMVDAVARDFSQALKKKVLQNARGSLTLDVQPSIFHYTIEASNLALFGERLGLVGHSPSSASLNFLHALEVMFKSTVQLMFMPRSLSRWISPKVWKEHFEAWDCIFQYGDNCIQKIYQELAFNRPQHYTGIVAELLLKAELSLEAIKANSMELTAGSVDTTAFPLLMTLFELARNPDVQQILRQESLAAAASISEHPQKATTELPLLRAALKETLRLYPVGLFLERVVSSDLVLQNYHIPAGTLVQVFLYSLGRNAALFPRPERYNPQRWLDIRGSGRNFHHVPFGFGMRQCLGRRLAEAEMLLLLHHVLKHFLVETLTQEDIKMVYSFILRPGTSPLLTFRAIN
Nature of the test: Inhibition of hCYP11B2 in transfected V79 cells. Type of test: cell-based. As to conditions: hamster V79 cells expressing human CYP11B2; substrate 11-deoxycorticosterone 200 nM. A digest of the protocol: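 The substrate (200 nM, 30 min) was added after a 2 hour compound pre-incubation in lentivirus-transduced V79 cells stably expressing human CYP11B2 plus rat NADPH-P450 reductase.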

In a further test the target is T2, human CYP11B1 (Homo sapiens, UniProt P15538).
T2 construct: expressed in transfected cells
T2 sequence (P15538 25-503): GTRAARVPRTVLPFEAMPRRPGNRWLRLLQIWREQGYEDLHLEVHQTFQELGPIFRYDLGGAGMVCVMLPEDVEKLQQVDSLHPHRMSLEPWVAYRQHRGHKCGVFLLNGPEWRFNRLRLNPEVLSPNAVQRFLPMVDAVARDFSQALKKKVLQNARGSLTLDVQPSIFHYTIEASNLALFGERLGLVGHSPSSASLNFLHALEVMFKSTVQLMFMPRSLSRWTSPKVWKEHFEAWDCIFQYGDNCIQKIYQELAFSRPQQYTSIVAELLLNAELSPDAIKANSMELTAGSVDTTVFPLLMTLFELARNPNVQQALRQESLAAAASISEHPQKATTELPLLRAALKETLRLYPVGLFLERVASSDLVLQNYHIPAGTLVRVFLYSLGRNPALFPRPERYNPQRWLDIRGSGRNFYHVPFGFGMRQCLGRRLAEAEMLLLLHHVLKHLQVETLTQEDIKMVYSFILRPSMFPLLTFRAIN
Nature of the test: Inhibition of hCYP11B1 in transfected V79 cells. Particulars: hamster V79 cells expressing human CYP11B1; substrate 11-deoxycortisol 200 nM. Type of test: cell-based. The method in brief: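 Reactions started with 200 nM 11-deoxycortisol, ran for 30 min and were stopped with ethyl acetate, after a 2 h compound preincubation. The host was stably transfected V79 hamster cells carrying human CYP11B1 plus rat P450 reductase. Percent inhibition, from LC-MS/MS or HPLC (260 nm) quantitation of substrate and product, gave the IC50.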

IC50 data for 24 molecules are collected here from patent publication US20260092074A1, “Annelated Pyridines as Steroidogenesis Inhibitors, Preparation Method and Use Thereof” (Guangzhou Vinnocent Pharmaceutical Limited, priority 2022, published 2026).

As to `COc1cccc(CC(=O)N2CCOc3c(-c4ccc(C#N)cc4)cncc32)c1` [O41, 4-(4-(2-(3-Methoxyphenyl)acetyl)-3,4-dihydro-2H-pyrido[4,3-b][1,4]oxazin-8-yl)benzonitrile], the IC50 on human CYP11B2 was 1.8 nM; against human CYP11B1 it was 52 nM.
Taken in the same sequence, the figures for `Cc1ccc(CC(=O)N2CCOc3c(-c4ccc(C#N)cc4)cncc32)cc1` [O42, 4-(4-(2-(p-Tolyl)acetyl)-3,4-dihydro-2H-pyrido[4,3-b][1,4]oxazin-8-yl)benzonitrile] were 0.6 nM and 67 nM.
The matching figures for `Cc1cccc(CC(=O)N2CCOc3c(-c4ccc(C#N)cc4)cncc32)c1` [O43, 4-(4-(2-(m-Tolyl)acetyl)-3,4-dihydro-2H-pyrido[4,3-b][1,4]oxazin-8-yl)benzonitrile]: 4.7 nM and 125 nM.
The matching figures for `Cc1ccccc1CC(=O)N1CCOc2c(-c3ccc(C#N)cc3)cncc21` [O44, 4-(4-(2-(o-Tolyl)acetyl)-3,4-dihydro-2H-pyrido[4,3-b][1,4]oxazin-8-yl)benzonitrile]: 4.8 nM and 84 nM.
`N#Cc1ccc(-c2cncc3c2OCCN3C(=O)Cc2ccc(C(F)(F)F)cc2)cc1` [O45, 4-(4-(2-(4-(Trifluoromethyl)phenyl)acetyl)-3,4-dihydro-2H-pyrido[4,3-b][1,4]oxazin-8-yl)benzonitrile]: the figures for the IC50 against human CYP11B2 and against human CYP11B1 were 15.1 nM and 614 nM, respectively.
Consider `N#Cc1ccc(-c2cncc3c2OCCN3C(=O)Cc2cccc(C(F)(F)F)c2)cc1` [O46, 4-(4-(2-(3-(Trifluoromethyl)phenyl)acetyl)-3,4-dihydro-2H-pyrido[4,3-b][1,4]oxazin-8-yl)benzonitrile], for which the IC50 amounted to 5.7 nM against human CYP11B2 and 240 nM at human CYP11B1.
The matching figures for `N#Cc1ccc(-c2cncc3c2OCCN3C(=O)CCc2ccc(F)cc2)cc1` [O47, 4-(4-(3-(4-Fluorophenyl)propanoyl)-3,4-dihydro-2H-pyrido[4,3-b][1,4]oxazin-8-yl)benzonitrile]: 3.8 nM and 52 nM.
As for `N#Cc1ccc(-c2cncc3c2OCCN3C(=O)CCc2cccc(F)c2)cc1` [O48, 4-(4-(3-(3-Fluorophenyl)propanoyl)-3,4-dihydro-2H-pyrido[4,3-b][1,4]oxazin-8-yl)benzonitrile], the IC50 was found to be 2.1 nM on human CYP11B2 and 117 nM against human CYP11B1.
Taken in the same sequence, the figures for `N#Cc1ccc(-c2cncc3c2OCCN3C(=O)CCc2ccc(Cl)cc2)cc1` [O49, 4-(4-(3-(4-Chlorophenyl)propanoyl)-3,4-dihydro-2H-pyrido[4,3-b][1,4]oxazin-8-yl)benzonitrile] were 1.6 nM and 54 nM.
With `N#Cc1ccc(-c2cncc3c2OCCN3C(=O)CCc2cccc(Cl)c2)cc1` [O50, 4-(4-(3-(3-Chlorophenyl)propanoyl)-3,4-dihydro-2H-pyrido[4,3-b][1,4]oxazin-8-yl) benzonitrile], the results for the IC50 on human CYP11B2 and against human CYP11B1 were 5 nM and 42 nM, respectively.
The matching figures for `COc1ccc(CCC(=O)N2CCOc3c(-c4ccc(C#N)cc4)cncc32)cc1` [O51, 4-(4-(3-(4-Methoxyphenyl)propanoyl)-3,4-dihydro-2H-pyrido[4,3-b][1,4]oxazin-8-yl)benzo nitrile]: 0.7 nM and 24 nM.
Take `COc1cccc(CCC(=O)N2CCOc3c(-c4ccc(C#N)cc4)cncc32)c1` [O52, 4-(4-(3-(3-Methoxyphenyl)propanoyl)-3,4-dihydro-2H-pyrido[4,3-b][1,4]oxazin-8-yl)benzonitrile]: the figures for the IC50 against human CYP11B2 and on human CYP11B1 were 1.1 nM and 51 nM, respectively.
The matching figures for `N#Cc1ccc(-c2cncc3c2OCCN3C(=O)CCc2ccc(C(F)(F)F)cc2)cc1` [O53, 4-(4-(3-(4-(Trifluoromethyl)phenyl)propanoyl)-3,4-dihydro-2H-pyrido[4,3-b][1,4]oxazin-8-yl)benzonitrile]: 8.2 nM and 55 nM.
Turning to `N#Cc1ccc(-c2cncc3c2OCCN3C(=O)CCc2cccc(C(F)(F)F)c2)cc1` [O54], the IC50 on human CYP11B2 came out at 6.9 nM; against human CYP11B1 it was 119 nM.
Consider `N#Cc1ccc(-c2cncc3c2OCCN3C(=O)C2CCN(S(=O)(=O)c3cccc(F)c3)CC2)cc1` [O55, 4-(4-(1-((3-Fluorophenyl)sulfonyl)piperidine-4-carbonyl)-3,4-dihydro-2H-pyrido[4,3-b][1, 4]oxazin-8-yl)benzonitrile], for which the IC50 was 2.1 nM on human CYP11B2 and 114 nM on human CYP11B1.
As to `N#Cc1ccc(-c2cncc3c2OCCN3C(=O)C2CNC2)cc1` [O56, 4-(4-(Azetidine-3-carbonyl)-3,4-dihydro-2H-pyrido[4,3-b][1,4]oxazin-8-yl)benzonitrile], the IC50 on human CYP11B2 worked out at 5.1 nM; against human CYP11B1 it was 292 nM.
As to `N#Cc1ccc(-c2cncc3c2OCCN3C(=O)C2CN(C(=O)c3ccc(F)cc3)C2)cc1` [O57, 4-(4-(1-(4-Fluorobenzoyl)azetidine-3-carbonyl)-3,4-dihydro-2H-pyrido[4,3-b][1,4]oxazin-8-yl)benzonitrile], the IC50 at human CYP11B2 is 1.6 nM; against human CYP11B1, 102 nM.
The matching figures for `N#Cc1ccc(-c2cncc3c2OCCN3C(=O)C2CN(C(=O)c3cccc(F)c3)C2)cc1` [O58, 4-(4-(1-(3-Fluorobenzoyl)azetidine-3-carbonyl)-3,4-dihydro-2H-pyrido[4,3-b][1,4]oxazin-8-yl)benzonitrile]: 1.9 nM and 132 nM.
Consider `N#Cc1ccc(-c2cncc3c2OCCN3C(=O)CNC(=O)c2ccc(F)cc2)cc1` [O59, N-(2-(8-(4-Cyanophenyl)-2,3-dihydro-4H-pyrido[4,3-b][1,4]oxazin-4-yl)-2-oxoethyl)-4-fluorobenzamide], for which the IC50 against human CYP11B2 amounted to 2.8 nM; against human CYP11B1 it was 276 nM.
Taken in the same sequence, the figures for `N#Cc1ccc(-c2cncc3c2OCCN3C(=O)C2CN(S(=O)(=O)c3ccc(F)cc3)C2)cc1` [O60, 4-(4-(1-((4-Fluorophenyl)sulfonyl)azetidine-3-carbonyl)-3,4-dihydro-2H-pyrido[4,3-b][1,4]oxazin-8-yl)benzonitrile] were 0.6 nM and 2.5 nM.
The matching figures for `N#Cc1ccc(-c2cncc3c2OCCN3C(=O)C2CN(S(=O)(=O)c3cccc(F)c3)C2)cc1` [O61, 4-(4-(1-((3-Fluorophenyl)sulfonyl)azetidine-3-carbonyl)-3,4-dihydro-2H-pyrido[4,3-b][1,4]oxazin-8-yl)benzonitrile]: 0.51 nM and 3.7 nM.
With `N#Cc1ccc(-c2cncc3c2OCCN3C(=O)C2CN(S(=O)(=O)c3ccc([N+](=O)[O-])cc3)C2)cc1` [O62, 4-(4-(1-((4-Nitrophenyl)sulfonyl)azetidine-3-carbonyl)-3,4-dihydro-2H-pyrido[4,3-b][1,4]oxazin-8-yl)benzonitrile], the IC50 at human CYP11B2 is 3.3 nM; at human CYP11B1, 178 nM.
Turning to `N#Cc1ccc(-c2cncc3c2OCCN3C(=O)C2CN(S(=O)(=O)c3cccc([N+](=O)[O-])c3)C2)cc1` [O63, 4-(4-(1-((3-Nitrophenyl)sulfonyl)azetidine-3-carbonyl)-3,4-dihydro-2H-pyrido[4,3-b][1,4]oxazin-8-yl)benzonitrile], the IC50 on human CYP11B2 is 2 nM; at human CYP11B1 it was 181 nM.
The matching figures for `N#Cc1ccc(-c2cncc3c2OCCN3C(=O)C2CN(S(=O)(=O)c3cccs3)C2)cc1` [O64, 4-(4-(1-(Thiophen-2-ylsulfonyl)azetidine-3-carbonyl)-3,4-dihydro-2H-pyrido[4,3-b][1,4]oxazin-8-yl)benzonitrile]: 0.5 nM and 63 nM.
